Test results from patent publication US5700769A, “Enhancement of enzyme reactions” (Novo Nordisk A/S, priority 1992, dated 1997).
Read-outs that look alike come from different tables or passages of the source. Blank lines part the entries; values can stand above or below the molecule they belong to.

Key:
[1] = target: T1, Coprinus cinereus peroxidase (CiP) (Coprinopsis cinerea, UniProt P28314); test: Initial bleaching of Direct Blue 1 by CiP with enhancer (Example 1); assay type: biochemical; conditions: 10 μM enhancer, 20 μM H2O2, 30° C., 610 nm
T1 construct: made in house
T1 sequence (P28314 21-363): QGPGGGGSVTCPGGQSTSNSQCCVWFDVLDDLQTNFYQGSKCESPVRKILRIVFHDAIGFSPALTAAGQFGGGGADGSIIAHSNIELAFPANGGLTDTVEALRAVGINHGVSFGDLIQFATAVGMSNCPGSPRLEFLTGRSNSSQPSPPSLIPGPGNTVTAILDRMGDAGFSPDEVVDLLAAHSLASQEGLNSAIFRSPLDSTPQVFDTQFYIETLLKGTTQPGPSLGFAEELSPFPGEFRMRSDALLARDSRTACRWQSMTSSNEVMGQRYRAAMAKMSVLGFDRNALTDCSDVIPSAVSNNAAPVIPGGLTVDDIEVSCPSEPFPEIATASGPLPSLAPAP
Method: The initial bleaching of Direct Blue 1 (DB1) by CiP using a selection of enhancers according to the invention was compared to the half-life of the oxidized enhancer (electron acceptor) measured under standard conditions.
Conditions for bleaching:
200 μl 50 mM Britton-Robinson* buffer
pH 8.5 and 10.5, respectively
After 5 seconds the bleaching was followed for at least 1 minute, and the initial bleaching rates (reduction in milli-absorbance units per minute, -ΔmAbs/min, determined from the initial slope of the absorbance curve) were determined.

[2] = target: T2, CiP (Coprinopsis cinerea, UniProt P28314); test: Apparent kinetic constants for oxidation of enhancer by CiP (Example 9); assay type: biochemical, Coprinus cinereus; conditions: pH 8.5, 30° C.; for Kcat (app.): turnover number calculated as Vmax/[CiP]o
T2 construct: made in house
T2 sequence (P28314 21-363): T1 sequence (P28314 21-363)
Method: (§1) The apparent kinetic constants for the oxidation of some of the enhancers of the invention, 10-ethyl-4-phenothiazinecarboxylic acid (EPC) and 10-phenothiazinepropionic acid (PTP), were determined using CiP (4nM for PTP and 3.1 nM for EPC), borate buffer (10 mM) pH 8.5, H2 O2 (50 μM) and varied concentrations of enhancer, 30° C. Formation of oxidized enhancer was monitored at 514 nm.
(§2) When Kcat (app.) is defined as the turnover number calculated as
(§3) Vmax /[CiP]o, where [CiP]o is the initial concentration of […]

[3] = Decay of oxidized vanillin and 7-hydroxycoumarin from cyclic voltammograms (Example 7); assay type: physicochemical; conditions: enhancer 2 mM; comparison of experimental with simulated voltammograms
Method: The half-life of vanillin and 7-hydroxycoumarin was determined from cyclic voltammograms of the enhancers. The cyclic voltammograms were obtained in a three-electrode system consisting of
(§4) Working electrode Platinum disc
(§5) Counter electrode Platinum wire
(§6) Reference electrode Calomel
The concentration of the enhancers was 2 mM.
The order of the decay reaction of the oxidized enhancers was determined from the dependence of the peak position of the oxidizing peak (Epo) on the scan rate (.nu.). For both enhancers (δEpo /δlog.nu.)=0.019 V in the scan rate range 0.1-1.0 V/s showing that the decay reaction is 2nd order.
The rate constant of the decay reaction of the oxidized enhancers was determined from a comparison of the experimental cyclic voltammograms with simulated voltammograms. The parameters needed for the simulation are the reaction order of the decay reaction, the concentration of the enhancer, the scan rate […] the rate constant for the decay reaction as described in Analytical Chemistry, Vol. 60, p. 1159, 1988.

[4] = Half-life of benzidine derivatives by cyclic voltametri (Example 8); assay type: physicochemical; conditions: CV in DMF/H2O buffer (1/9), 2 mM, two electron transfer
Method: The half-life of the different benzidine derivatives was measured by cyclic voltametri (CV) in DMF/H2 O buffer (1/9) at pH 8.5 and 10.5 as described in. The concentration of the benzidines were 2 mM, and the half-life (t1/2) of the compounds is referring to a two electron transfer.

[5] = Half-life of oxidized enhancer from cyclic voltammogram (Example 1); assay type: physicochemical; conditions: pH 10.5, enhancer 8 mM
Method: The half-life of the oxidized enhancers were determined from a cyclic voltammogram of the enhancers present at a concentration of 8 mM. The cyclic voltammograms were obtained in a standard three-electrode system consisting of
as §4, §5, §6
The half-life (t1/2) of the oxidized enhancers was calculated from the scan rates (.nu.), peak positions and switching potential in a cyclic voltammogram in which the peak current of the reducing peak had half the value of the peak current of the oxidizing peak. [formula] ΔE is the difference of the peak position of the reducing peak and the switching potential.
The switching potential was fixed at a potential 0.2 V higher than the peak position of the oxidizing peak in a reversible voltammogram. A reversible voltammogram is obtained at scan rates at which the difference between the peak positions of the oxidizing and reducing peak approaches 0.059 V.

[6] = ESR
Method: The stability of the ABTS radical formed by oxidation of ABTS with a recombinantly produced Coprinus cinereus peroxidase (rCiP), obtained according to Example 1, was studied by electron spin resonance technique (ESR). The ESR signal was calculated after 20 scans, where the area under curve corresponds to the concentration of the radical. The signal was integrated from 3260 Gaus to 3300 Gaus.
The stability of the radical was determined in 0.1M Britton & Robinson buffer at different pH values. A concentration of 2.27 mM H2 O2 and an enzyme concentration 34 PODU/ml was applied.
The half-lives in Table 3 measured at different concentrations have for comparison been calculated to a concentration of 250 μM assuming a 2nd order decay.

[7] = substrate: CCN1c2ccccc2Sc2c(C(=O)O)cccc21; test: Apparent kinetic constants for oxidation of enhancer by CiP (Example 9); assay type: biochemical, Coprinus cinereus; conditions: other: CiP 4 nM for PTP, 3.1 nM for EPC, borate buffer 10 mM pH 8.5, 50 μM H2O2, 30° C., 514 nm
Method: as §1, §2, §3

[8] = substrate: O=C(O)CCN1c2ccccc2Sc2ccccc21; test: as above; assay type: biochemical, Coprinus cinereus; conditions: other: CiP 4 nM for PTP, 3.1 nM for EPC, borate buffer 10 mM pH 8.5, 50 μM H2O2, 30° C., 514 nm
Method: as §1, §2, §3

Molecule: O=c1ccc2ccc(O)cc2o1 [7-hydroxycoumarin]
rate constant for the decay reaction of the oxidized enhancer [3]: ~10^8 M^-1 s^-1

Molecule: Cc1cc(-c2cc(C)c(N)c(C)c2)cc(C)c1N [3,3',5,5'-tetramethyl-benzidine, 3,3',5,5'-tetramethylbenzidine]
t1/2 (half-life of oxidized enhancer) ([4]; pH 8.5): 4.5 s | t1/2 (half-life of oxidized enhancer) ([4]; pH 10.5): 5 s

Molecule: CC(=O)c1ccc2c(c1)N(C)c1ccccc1S2 [2-acetyl-10-methyl-phenothiazine]
bleaching (initial bleaching of Direct Blue 1) ([1]; pH 8.5, 2 nM CiP): 27 -ΔmAbs/min | bleaching (initial bleaching of Direct Blue 1) ([1]; pH 10.5, 1 nM CiP): 25 -ΔmAbs/min

Molecule: CCN1c2ccccc2Sc2c(C(=O)O)cccc21 [10-ethyl-4-phenothiazine-carboxylic acid, 10-ethyl-4-phenothiazinecarboxylic acid]
bleaching (initial bleaching of Direct Blue 1) ([1]; pH 8.5, 2 nM CiP): 816 -ΔmAbs/min | bleaching (initial bleaching of Direct Blue 1) ([1]; pH 10.5, 1 nM CiP): 864 -ΔmAbs/min | t1/2 (half-life of the oxidized enhancer) [5]: 2.5 s | 1/kcat (app.) [2]: ~ 1 ms | Kcat (app.) [2]: 997 ± 64 s⁻¹

Molecule: CCn1c(=NN=c2sc3cc(S(=O)(=O)O)ccc3n2CC)sc2cc(S(=O)(=O)O)ccc21 [ABTS, 2,2'-azino-bis (3-ethylbenzothiazoline-6-sulfonate)]
t1/2 of ABTS radical ([6]; pH 3, initial concentration 0.45 mM, 0.1M Britton & Robinson buffer): 83 h | t1/2 of ABTS radical ([6]; pH 4, initial concentration 0.45 mM): 66 h | t1/2 of ABTS radical ([6]; pH 6, initial concentration 0.45 mM): 6.75 h | t1/2 of ABTS radical ([6]; pH 7, initial concentration 0.24 mM): 1.4 h | t1/2 of ABTS radical ([6]; pH 8.7, initial concentration 0.24 mM): 0.67 h

Molecule: COc1cc(C=O)ccc1O [vanillin]
rate constant for the decay reaction of the oxidized enhancer [3]: ~10^8 M^-1 s^-1

B1: CiP (Coprinopsis cinerea) (protein)
chain: T1 sequence (P28314 21-363)
notes: made in house
Km [7]: 31 µM | Km [8]: 53 µM

Next, values leading:

bleaching (initial bleaching of Direct Blue 1) ([1]; pH 8.5, 2 nM CiP): 486 -ΔmAbs/min | bleaching (initial bleaching of Direct Blue 1) ([1]; pH 10.5, 1 nM CiP): 468 -ΔmAbs/min | 1/kcat (app.) [2]: ~ 1.5 ms | Kcat (app.) [2]: 671 ± 124 s⁻¹
Molecule: O=C(O)CCN1c2ccccc2Sc2ccccc21 [10-phenothiazine propionic acid, 10-phenothiazinepropionic acid]

bleaching (initial bleaching of Direct Blue 1) ([1]; pH 8.5, 2 nM CiP): 240 -ΔmAbs/min | bleaching (initial bleaching of Direct Blue 1) ([1]; pH 10.5, 1 nM CiP): 480 -ΔmAbs/min
Molecule: CN1c2ccccc2Sc2ccccc21 [10-methyl-phenothiazine]

bleaching (initial bleaching of Direct Blue 1) ([1]; pH 8.5, 2 nM CiP): 72 -ΔmAbs/min | bleaching (initial bleaching of Direct Blue 1) ([1]; pH 10.5, 1 nM CiP): 99 -ΔmAbs/min
Molecule: COC(=O)CCN1c2ccccc2Sc2ccccc21 [methyl-10-phenothiazine-propionate]
